Assay results from publication PMC7864049, “Co-crystal structures of HIV TAR RNA bound to lab-evolved proteins show key roles for arginine relevant to the design of cyclic peptide TAR inhibitors” (The Journal of Biological Chemistry, 2021).
Values joined by “and” are separate entries in the source; they are usually repeats but may differ in a detail not shown here. Equal values may be shown once. “Also recorded” adds a separate entry of the source. Read-outs that look alike come from different tables or passages of the source. Where no end group is shown, it is not given here.

What was measured:
[1] = tested on: HIV-1 TAR RNA (biotinylated TAR 27-mer); format: binding
[2] = tested on: Tat ARM binding to HIV-1 TAR RNA
HIV-1 TAR RNA (27-mer) = format: binding
[3] = pH 7.5, read-out: KD (apparent)

## PRQRTPRGQ (also: sidechain bridge or staple (positions not given here)) [TB-CP-6.7a, two terminal cysteines cross-linked via a methylene bridge]
[1]
  koff: 0.018 ± 0.0001 s⁻¹
  koff × 10^−2: 1.90 10^−2 s^−1
  kon: 863.0 ± 59.0 M⁻¹ s⁻¹ and 803 ± 14 M⁻¹ s⁻¹
[1]; [3]
  Kd: 22 µM
[1]; read-out: KD
  Kd: 23 ± 0.1 µM

## RRRTPR (also: sidechain bridge or staple (positions not given here)) [TB-CP-6.9a, cyclic peptide (11-mer]
[2]
  block of Tat ARM binding to TAR: formed a complex with TAR that occluded Tat-binding sites; also recorded: effectively block the interaction of TAR with the Tat ARM
[1]
  TAR binding in presence of tRNA: capable of binding under this condition
  fold difference in TAR-binding affinity: ~6 -fold
  fold increase in kon: 8 -fold
  koff: 0.024 ± 0.0001 s⁻¹
  koff × 10^−2: 2.75 10^−2 s^−1
  kon: 7463 ± 130 M⁻¹ s⁻¹
[1]; 0.625–20 μM
  kon × 10^2: 76.50 10^2 M^−1s^−1
[1]; [3]
  Kd: 3.6 µM
[1]; read-out: KD
  Kd: 3.2 ± 0.8 µM
HIV-1 TAR RNA (27-mer)
  Kd: 5 ± 0.6 µM
  ΔG°: -7.1 ± 0.02 kcal/mol
  ΔH°: −7.2 ± 0.2 kca/mol
  −TΔS°: 0.1 ± 0.2 kcal/mol
HIV-1 TAR RNA (27-mer); pH 7.5
  Kd: 5.3 ± 0.2 µM
